For the assay, the system named is Anabolic/Catabolic Index (ACI). In words: Human clinical trial: effect of treatment on urinary Anabolic/Catabolic Index (ACI). In kind it is in vivo. The procedure: The concentration of 17-KS-S in the sample was calculated from the ratio of the peak area of the compound of interest to that of the external standard multiplied by its concentration. The concentration of creatinine in urine was measured by a colorimetric method. The urinary Anabolic/Catabolic Index (ACI=X/Y) was calculated as a ratio of total 17-ketosteroid sulfate concentration (X, ng/μL) to creatinine concentration (Y, μg/μL).
There were two objectives in this example. The first was to investigate the ACI-age relationship using baseline information of ACI and the second was to investigate effects of four treatment groups on ACI.
There were 71 individuals for treatment allocation. They were identified with a number of 1 through 72 (69 was not used). Of these 71 individuals, five (subject identification numbers=3, 22, 24, 26 and 65) were not included in the data set of ACI measurements. Consequently, there were 66 individuals represented in the ACI information. Among the 66 individuals, three (subject ID=1, 9 and 60) had only baseline measurements. These three individuals contributed to the analysis of age/ACI relationship only. Therefore, the data set for looking at treatment effects consisted of 63 individuals. Not all of the 63 individuals have six serial observations.
A 24-hour urine specimen was collected from each individual before treatment. The urine specimens were quickly aliquoted, frozen, and immediately shipped on dry ice by overnight service for analysis. A ratio of total 17-ketosteroid sulfate concentration (ng/μL) to creatinine concentration (mg/mL) was calculated and expressed as ACI. Subsequent to treatment urine specimens were collected and analyzed at 24 hours. […] The fitted line has a negative slope (estimate of the slope is −0.061239 and is statistically significant from zero with p-value being equal to 0.0034.). Pearson correlation is estimated to be −0.35510 (p=0.0034). These findings indicate that ACI level decreases with ages between 40 and 65.
This part of the analysis was performed to determine if any of three different treatments affect the ACI level. That is to check whether the ACI level changes under and after termination of treatment. There were four treatment groups, referred to as groups 1-4. The individuals in Group 1 were given a placebo. The individuals in Group 2 were treated with 7-keto DHEA (25 mg/day dosage). The individuals in Group 3 were treated with Longevity Signal Formula (LSV) (2.008 mg/day dosage). The individuals in Group 4 were treated with Longevity Signal Formula (LSV) and Renewal Herbal Formula (Renewal).
FIG. 5 illustrates the plots of the individual profile for each treatment group for weeks 1-5. Each individual's serial observations are connected with a line to emphasize the trend over time. Measurements at week zero represent ACI prior treatment. Measurements at weeks 1-4 represent the ACI level after receiving treatments for 1-4 weeks respectively. Measurements at week 5 represent the ACI level three days after termination of treatment. FIG. 6 plots the mean responses at each point in time plus two standard errors.

The record followed here is patent publication US20020064883A1, “Measurement and quantification of 17 ketosteroid-sulfates as a biomarker of biological age” (priority 2000, published 2002).

As for `C[C@]12CC[C@H](O)CC1=CC(=O)[C@@H]1[C@@H]2CC[C@]2(C)C(=O)CC[C@@H]12` [7-keto DHEA], under “under treatment, weeks 1-4 vs baseline”, the “Effect of treatment on ACI level (in words)” value is “does not change the ACI level at all”. The “Mean of difference in ACI” value (week 1 − week 0 (week 0 = baseline; paired t-test)) is on record as −0.04; the “Mean of difference in ACI” value (week 2 − week 0) is given as 0.20; the “Mean of difference in ACI” value (week 2 − week 1) was determined as 0.23; the “Mean of difference in ACI” value (week 3 − week 0) is recorded as −0.12; the “Mean of difference in ACI” value (week 3 − week 1) is −0.08; the “Mean of difference in ACI” value (week 3 − week 2) is reported as −0.31. Besides, the “Mean of difference in ACI” value is, setting by setting: (week 4 − week 0) −0.12; (week 4 − week 1) −0.09; (week 4 − week 2) −0.32; (week 4 − week 3) −0.01; (week 5 − week 0 (week 5 = three days after termination of treatment)) −0.10; (week 5 − week 1) −0.07. Besides, the “Mean of difference in ACI” value (week 5 − week 2) is given as −0.30, the “Mean of difference in ACI” value (week 5 − week 3) was determined as 0.01 and the “Mean of difference in ACI” value (week 5 − week 4) amounted to 0.02.
